Reference: patent publication US6964975B2, “Isoxazole and thiazole compounds and use thereof as medicine” (Kirin Beer Kabushiki Kaisha, priority 2000, dated 2005)

Key:
Human EDG-2/HepG2 cells = assay: Inhibitory activity on LPA-accelerated [3H] thymidine incorporation (cell proliferation); type: cell-based; settings: 50% inhibition of LPA-induced increase of [3H] thymidine incorporation
From the text: The human EDG-2 expression plasmid was introduced into HepG2 cells by electroporation. After the introduction, culturing was continued while exchanging selective media every 3 to 4 days, thereby obtaining an expressed colony. Regarding these cells, Ca-influx and cell-proliferation by LPA, level of [^3H] LPA binding and the like were inspected to select a cell line which highly expresses human EDG-2 (human EDG-2/HepG2).
Human EDG-2/HepG2 cells suspended in 10% bovine serum-containing DMEM (Dulbecco's modified eagle medium) were plated on a 96-well plate and, on the next day, the medium was exchanged with serum-free DMEM. 24 hours later, the medium was exchanged with DMEM containing LPA or DMEM containing no LPA, cells were cultured for further 16 hours, and [^3H] thymidine was then added. After culturing for 8 hours subsequent to the addition of [^3H] thymidine, cells were washed with PBS (phosphate-buffered saline), and the amount of [^3H] thymidine incorporated into the cells were assayed by Betaplate filter counter system (Amersham Pharmacia Biotech). The difference between the amount of [^3H] thymidine incorporated in the LPA-added well and the amount of [^3H] thymidine incorporated in the well containing no LPA represents the amount of [^3H] thymidine incorporation accelerated by LPA. […] The test compounds were added immediately before the LPA addition.

human EDG-2 = molecular target: T1, human EDG-2 (Homo sapiens, UniProt Q92633); assay: Inhibitory activity on LPA-induced elevation of intracellular Ca2+ level; type: cell-based; settings: 50% inhibition of elevation of intracellular Ca2+ level by LPA, human EDG-2/HepG2 cells, fura-2
T1 construct: cDNA of the cloned human EDG-2 was introduced into pEFneo, which is an animal expression vector; expressed in transfected cells; host or cells: HepG2
How it was run: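 Stably transfected HepG2 cells loaded with fura-2/AM (45 min, room temperature) in 0.1% BSA HEPES buffer. Test compound added before LPA, and the LPA-evoked intracellular Ca2+ rise measured fluorometrically. IC50 for inhibition derived.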

T1 sequence (Q92633 whole entry): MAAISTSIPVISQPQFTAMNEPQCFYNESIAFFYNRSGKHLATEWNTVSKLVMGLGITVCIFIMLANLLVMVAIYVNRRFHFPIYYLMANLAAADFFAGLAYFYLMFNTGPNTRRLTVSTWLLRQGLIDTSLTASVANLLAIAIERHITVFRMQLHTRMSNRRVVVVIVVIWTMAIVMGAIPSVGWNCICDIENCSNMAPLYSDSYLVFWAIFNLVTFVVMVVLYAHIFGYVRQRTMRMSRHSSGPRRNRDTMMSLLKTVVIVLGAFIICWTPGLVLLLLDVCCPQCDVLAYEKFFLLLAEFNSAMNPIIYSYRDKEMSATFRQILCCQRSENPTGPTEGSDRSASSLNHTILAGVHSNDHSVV

## COCc1cccc(-c2onc(C)c2NC(=O)OC(C)c2ccccc2Cl)c1 (stereo not drawn) [Compound 128, 1-(2-Chlorophenyl)ethyl N-{5-[3-(methoxymethyl)phenyl]-3-methyl-4-isoxazolyl}carbamate]
Human EDG-2/HepG2 cells
  IC50: 100 to 300 nM
Human EDG-2
  IC50: 3 to 10 µM

## Cc1noc(-c2ccc(CSCCCS(=O)(=O)O)cc2)c1NC(=O)OC(C)c1ccccc1Cl (stereo not drawn) [Compound 152, 3-({4-[4-({[1-(2-Chlorophenyl)ethoxy]carbonyl}amino)-3-methyl-5-isoxazolyl]benzyl}-sulfanyl)-1-propanesulfonic acid]
Human EDG-2/HepG2 cells
  IC50: 300 nM
Human EDG-2
  IC50: 3 to 10 µM

## Cc1noc(-c2ccc(CNCCc3ccncc3)cc2)c1NC(=O)OC(C)c1ccccc1Cl (stereo not drawn) [Compound 111, 1-(2-Chlorophenyl)ethyl N-{3-methyl-5-[4-({[2-(4-pyridyl)ethyl]amino}methyl)phenyl]-4-isoxazolyl}carbamate]
Human EDG-2/HepG2 cells
  IC50: 1000 to 3000 nM
Human EDG-2
  IC50: 10 to 30 µM

## Cc1noc(-c2ccc(CSCCC(=O)O)cc2)c1NC(=O)OC(C)c1ccccc1F (stereo not drawn) [Compound 157, 3-({4-[4-({[1-(2-Fluorophenyl)ethoxy]carbonyl}amino)-3-methyl-5-isoxazolyl]benzyl}-sulfanyl)propanoic acid]
Human EDG-2/HepG2 cells
  IC50: 300 to 1000 nM
Human EDG-2
  IC50: 3 µM

## Cc1noc(-c2cccc(CSc3nc[nH]n3)c2)c1NC(=O)OC(C)c1ccccc1Cl (stereo not drawn) [Compound 143, 1-(2-Chlorophenyl)ethyl N-(3-methyl-5-{3-[(1H-1,2,4-triazol-3-ylsulfanyl)methyl]phenyl}-4-isoxazolyl)carbamate]
Human EDG-2/HepG2 cells
  IC50: 100 to 300 nM
Human EDG-2
  IC50: 3 to 10 µM

## Cc1noc(-c2ccc(CCl)cc2)c1NC(=O)OC(c1ccccc1)C(F)(F)F (stereo not drawn) [Compound 161, 2,2,2-Trifluoro-1-phenylethyl N-{5-[4-(chloromethyl)phenyl]-3-methyl-4-isoxazolyl}-carbamate]
Human EDG-2/HepG2 cells
  IC50: 1000 to 3000 nM
Human EDG-2
  IC50: 3 to 10 µM

## Cc1noc(-c2ccnc(Cl)c2)c1NC(=O)OC(C)c1ccccc1Cl (stereo not drawn) [Compound 71, 1-(2-Chlorophenyl)ethyl N-[5-(2-chloro-4-pyridyl)-3-methyl-4-isoxazolyl]carbamate]
Human EDG-2/HepG2 cells
  IC50: 1000 nM
Human EDG-2
  IC50: 3 µM

## CCSCc1ccc(-c2onc(C)c2NC(=O)OC(C)c2ccccc2Cl)cc1 (stereo not drawn) [Compound 108, 1-(2-Chlorophenyl)ethyl N-(5-{4-[(ethylsulfanyl)methyl]phenyl}-3-methyl-4-isoxazolyl)carbamate]
Human EDG-2/HepG2 cells
  IC50: 100 to 300 nM
Human EDG-2
  IC50: 3 to 10 µM

## Cc1noc(-c2ccc(CSCCC(=O)O)cc2)c1NC(=O)OC(c1ccccc1)C(F)(F)F (stereo not drawn) [Compound 163, 3-{[4-(3-Methyl-4-{[(2,2,2-trifluoro-1-phenylethoxy)carbonyl]amino}-5-isoxazolyl)benzyl]-sulfanyl}propanoic acid]
Human EDG-2/HepG2 cells
  IC50: 30 to 100 nM
Human EDG-2
  IC50: 3 to 10 µM

## CCc1noc(-c2ccc(CSCCC(=O)O)cc2)c1NC(=O)OC(C)c1ccccc1Cl (stereo not drawn) [Compound 147, 3-({4-[4-({[1-(2-Chlorophenyl)ethoxy]carbonyl}amino)-3-ethyl-5-isoxazolyl]benzyl}-sulfanyl)propanoic acid]
Human EDG-2/HepG2 cells
  IC50: 30 to 100 nM
Human EDG-2
  IC50: 3 to 10 µM

## Cc1noc(-c2ccc(CNCCF)cc2)c1NC(=O)OC(C)c1ccccc1Cl (stereo not drawn) [Compound 112, 1-(2-Chlorophenyl)ethyl N-[5-(4-{[(2-fluoroethyl)amino]methyl}phenyl)-3-methyl-4-isoxazolyl]carbamate]
Human EDG-2/HepG2 cells
  IC50: 300 to 1000 nM
Human EDG-2
  IC50: 10 to 30 µM

## CCc1noc(-c2ccc(CSCCC(=O)O)cc2)c1NC(=O)OC(C)c1ccccc1F (stereo not drawn) [Compound 167, 3-({4-[3-Ethyl-4-({[1-(2-fluorophenyl)ethoxy]carbonyl}amino)-5-isoxazolyl]benzyl}-sulfanyl)propanoic acid]
Human EDG-2/HepG2 cells
  IC50: 30 to 100 nM
Human EDG-2
  IC50: 3 to 10 µM

## Cc1noc(-c2ccco2)c1NC(=O)OC(C)c1ccccc1Cl (stereo not drawn) [Compound 32, 1-(2-Chlorophenyl)ethyl N-[5-(2-furyl)-3-methyl-4-isoxazolyl]carbamate]
Human EDG-2/HepG2 cells
  IC50: 1000 nM
Human EDG-2
  IC50: 3 µM

## CCCSCc1ccc(-c2onc(C)c2NC(=O)OC(C)c2ccccc2Cl)cc1 (stereo not drawn) [Compound 117, 1-(2-Chlorophenyl)ethyl N-(3-methyl-5-{4-[(propylsulfanyl)methyl]phenyl}-4-isoxazolyl)-carbamate]
Human EDG-2/HepG2 cells
  IC50: 30 to 100 nM
Human EDG-2
  IC50: 3 to 10 µM

## CCOC(=O)CCNCc1ccc(-c2onc(C)c2NC(=O)OC(C)c2ccccc2Cl)cc1 (stereo not drawn) [Compound 113, Ethyl 3-({4-[4-({[1-(2-chlorophenyl)ethoxy]carbonyl}amino)-3-methyl-5-isoxazolyl]-benzyl}amino)propanoate]
Human EDG-2/HepG2 cells
  IC50: 100 to 300 nM
Human EDG-2
  IC50: 10 to 30 µM

## Cc1noc(-c2ccc(CNCc3ccccn3)cc2)c1NC(=O)OC(C)c1ccccc1Cl (stereo not drawn) [Compound 105, 1-(2-Chlorophenyl)ethyl N-[3-methyl-5-(4-{[(2-pyridylmethyl)amino]methyl}-phenyl)-4-isoxazolyl]carbamate]
Human EDG-2/HepG2 cells
  IC50: 1000 nM
Human EDG-2
  IC50: 10 to 30 µM

## Cc1noc(-c2ccc(CNCCc3ccccn3)cc2)c1NC(=O)OC(C)c1ccccc1Cl (stereo not drawn) [Compound 103]
Human EDG-2/HepG2 cells
  IC50: 300 nM
Human EDG-2
  IC50: 10 µM

## Cc1noc(-c2ccc(CNCCc3cccnc3)cc2)c1NC(=O)OC(C)c1ccccc1Cl (stereo not drawn) [Compound 110, 1-(2-Chlorophenyl)ethyl N-{3-methyl-5-[4-({[2-(3-pyridyl)ethyl]amino}methyl)-phenyl]-4-isoxazolyl}carbamate]
Human EDG-2/HepG2 cells
  IC50: 300 to 1000 nM
Human EDG-2
  IC50: 10 to 30 µM

## CCSCc1cccc(-c2onc(C)c2NC(=O)OC(C)c2ccccc2Cl)c1 (stereo not drawn) [Compound 132, 1-(2-Chlorophenyl)ethyl N-(5-{3-[(ethylsulfanyl)methyl]phenyl}-3-methyl-4-isoxazolyl)carbamate]
Human EDG-2/HepG2 cells
  IC50: 300 to 1000 nM
Human EDG-2
  IC50: 3 µM

## CCc1noc(-c2ccc(CCl)cc2)c1NC(=O)OC(c1ccccc1)C(F)(F)F (stereo not drawn) [Compound 164, 2,2,2-Trifluoro-1-phenylethyl N-{5-[4-(chloromethyl)phenyl]-3-ethyl-4-isoxazolyl}carbamate]
Human EDG-2/HepG2 cells
  IC50: 300 to 1000 nM
Human EDG-2
  IC50: 3 to 10 µM

## Cc1noc(-c2ccc(CSCC(=O)NCc3ccco3)cc2)c1NC(=O)OC(C)c1ccccc1Cl (stereo not drawn) [Compound 139, 1-(2-Chlorophenyl)ethyl N-(5-{4-[({2-[(2-furylmethyl)amino]-2-oxoethyl}sulfanyl)-methyl]phenyl)-3-methyl-4-isoxazolyl)carbamate]
Human EDG-2/HepG2 cells
  IC50: 30 to 100 nM
Human EDG-2
  IC50: 10 µM

## Cc1noc(-c2ccc(CSCC(O)CO)cc2)c1NC(=O)OC(C)c1ccccc1Cl (stereo not drawn) [Compound 135]
Human EDG-2/HepG2 cells
  IC50: 100 to 300 nM
Human EDG-2
  IC50: 3 to 10 µM

## CCc1noc(-c2ccc(CSCCC(=O)OC)cc2)c1NC(=O)OC(C)c1ccccc1F (stereo not drawn) [Compound 165, Methyl 3-({4-[3-ethyl-4-({[1-(2-fluorophenyl)ethoxy]carbonyl}amino)-5-isoxazolyl]-benzyl}sulfanyl)propanoate]
Human EDG-2/HepG2 cells
  IC50: 100 to 300 nM
Human EDG-2
  IC50: 3 to 10 µM

## CC(=O)NCCSCc1ccc(-c2onc(C)c2NC(=O)OC(C)c2ccccc2Cl)cc1 (stereo not drawn) [Compound 145, 1-(2-Chlorophenyl)ethyl N-{5-[4-({[2-(acetylamino)ethyl]sulfanyl}methyl)phenyl]-3-methyl-4-isoxazolyl}carbamate]
Human EDG-2/HepG2 cells
  IC50: 300 to 1000 nM
Human EDG-2
  IC50: 3 to 10 µM

## Cc1noc(-c2ccc(CSCC(=O)O)cc2)c1NC(=O)OC(C)c1ccccc1Cl (stereo not drawn) [Compound 121, 2-({4-[4-({[1-(2-Chlorophenyl)ethoxy]carbonyl}amino)-3-methyl-5-isoxazolyl]benzyl}-sulfanyl)acetic acid]
Human EDG-2/HepG2 cells
  IC50: 30 to 100 nM
Human EDG-2
  IC50: 3 to 10 µM

## CCOC(=O)CSCc1ccc(-c2onc(C)c2NC(=O)OC(C)c2ccccc2Cl)cc1 (stereo not drawn) [Compound 119, Ethyl 2-({4-[{4-(i [-(2-chlorophenyl)ethoxy]carbonyl}amino)-3-methyl-5-isoxazolyl]benzyl}-sulfanyl)acetate]
Human EDG-2/HepG2 cells
  IC50: 100 to 300 nM
Human EDG-2
  IC50: 3 to 10 µM

## Cc1onc(-c2ccccc2F)c1NC(=O)OC(C)c1ccccc1Cl (stereo not drawn) [Compound 20, 1-(2-Chlorophenyl)ethyl N-[3-(2-fluorophenyl)-5-methyl-4-isoxazolyl]carbamate]
Human EDG-2/HepG2 cells
  IC50: 1000 nM
Human EDG-2
  IC50: 3 µM

## Cc1noc(-c2ccc(CNCc3ccco3)cc2)c1NC(=O)OC(C)c1ccccc1Cl (stereo not drawn) [Compound 106, 1-(2-Chlorophenyl)ethyl N-[5-(4-{[(2-furylmethyl)amino]methyl}phenyl)-3-methyl-4-isoxazolyl]carbamate]
Human EDG-2/HepG2 cells
  IC50: 1000 to 3000 nM
Human EDG-2
  IC50: 3 to 10 µM

## Cc1noc(-c2ccc(C#N)cc2)c1NC(=O)OC(C)c1ccccc1Cl (stereo not drawn) [Compound 47, 1-(2-Chlorophenyl)ethyl N-[5-(4-cyanophenyl)-3-methyl-4-isoxazolyl]carbamate]
Human EDG-2/HepG2 cells
  IC50: 300 nM
Human EDG-2
  IC50: 1 µM

## CCc1noc(-c2ccc(CSCCC(=O)OC)cc2)c1NC(=O)OC(c1ccccc1)C(F)(F)F (stereo not drawn) [Compound 166, Methyl 3-{[4-(3-ethyl-4-{[(2,2,2-trifluoro-1-phenylethoxy)carbonyl]amino}-5-isoxazolyl)-benzyl]sulfanyl}propanoate]
Human EDG-2/HepG2 cells
  IC50: 100 nM
Human EDG-2
  IC50: 10 µM
